For experiment [1], the target named is T1, hGHSR1a^WT-RLucII / mVenus-β-arr2 (Homo sapiens, UniProt Q92847).
T1 construct: expressed in transfected cells; host or cells: HEK293/T, transient
Description: BRET β-arr2 recruitment. Format: cell-based. On the technique in general: In BRET a luciferase serves as donor, and the signal depends on an acceptor being close.
Description: The morning after transfection, media was exchanged and after 4-6 hours, cells were then plated on white 96-well, clear-bottomed assay plates at a density of 45,000 cells/well in opti-MEM supplemented with 2% FBS and antibiotic/antimycotic. The following morning, opti-MEM was removed and cells were incubated with 70-80 μL HBSS supplemented with 20 mM HEPES (pH 7.4) for 4 hours. Cells were then treated with 10 μL of coelenterazine H (5 μM final) for 5-10 minutes at room temperature.

Experiment [2] deals with T2, hGHSR1a^WT-RLucII (Homo sapiens, UniProt Q92847).
T2 construct: expressed in transfected cells; host or cells: HEK293/T, transient
T2 sequence (Q92847 whole entry): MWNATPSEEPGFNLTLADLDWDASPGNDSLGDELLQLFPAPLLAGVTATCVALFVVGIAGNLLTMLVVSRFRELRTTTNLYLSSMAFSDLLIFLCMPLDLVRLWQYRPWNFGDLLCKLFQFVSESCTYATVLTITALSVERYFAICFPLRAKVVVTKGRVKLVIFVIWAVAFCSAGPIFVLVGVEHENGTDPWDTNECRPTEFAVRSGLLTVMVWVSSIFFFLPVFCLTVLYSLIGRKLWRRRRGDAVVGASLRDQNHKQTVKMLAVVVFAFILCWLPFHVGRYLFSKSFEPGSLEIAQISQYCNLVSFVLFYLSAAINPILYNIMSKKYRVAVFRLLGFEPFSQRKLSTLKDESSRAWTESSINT
Description: Bystander BRET internalization (MyrPalm-Venus). It is filed as cell-based. Particulars: over 60 minutes. On the procedure: (§1) Bystander BRET (bBRET). hGHSR1a^WT-RLucII and plasma membrane marker, MyrPalm^mVenus, or the early endosomal marker, 2×-FYVE^mVenus, was transiently co-transfected in HEK293/T cells at a ratio of 1:5 or 1:12.5, respectively. […] Plates were then read by a Mithras 940 plate reader every 5 minutes over 1 hour (MyrPalm^mVenus) or 2 hours (2×FYVE^mVenus) to determine a BRET ratios. To generate CR curves, the average net BRET over 60 minutes post-treatment was used.

Experiment [3] has as its target T2, hGHSR1a^WT-RLucII. Description: Bystander BRET endosomal trafficking (2xFYVE-Venus). It is filed as cell-based. Particulars: 60-minute post-treatment. The procedure:
as §1

Experiment [4] has as its target T3, hGHSR1a^D99A (Homo sapiens, UniProt Q92847, D99A).
T3 construct: expressed in transfected cells; host or cells: HEK293/T, transient
Description: Gαq dissociation (TRUPATH) and iCa2+ at D99A mutant. Format: cell-based. The settings on record: surface expression reduced markedly. The procedure:
(§2) For experiments with WT and Gt KO HEK293/S cells, […] of hGHSR1a^WT, 10 μg of miAEQ, and 2.5 μg of pcDNA3.1 was transiently transfected into 10 cm dishes and incubated overnight. […] Twenty-four hours later, experiments proceeded in accordance with the procedures described above. To control for any possible kinetic differences in genetically modified cell lines or GHSR1a variants, the average ligand-induced response over 10 seconds was calculated, then normalized by dividing the L-miAeq by the L-miAeq plus the Lysis-miAeq and normalized to the appropriate control/reference condition.

Experiment [5] deals with T4, GHSR1a^E197A (Homo sapiens, UniProt Q92847, E197A).
T4 construct: expressed in transfected cells; host or cells: HEK293/T
T4 sequence (Q92847 whole entry E197A): as the sequence (Q92847 whole entry) above, with E197A counted along it
The experiment in a line: iCa2+ at E197A mutant. Format: cell-based. The procedure: as §2

For experiment [6], the target named is T4, GHSR1a^E197A. Description: TRUPATH Gαq dissociation at E197A mutant. It is filed as cell-based.
The subject of experiment [7] is DAT knockout (KO) mice. The experiment in a line: Spontaneous hyperlocomotion in DAT KO mice (open field). It is filed as in vivo, mouse. The settings on record: 2.5, 5, or 10 mg/kg, IP; 120 minutes. The procedure: To evaluate the effect of N8279 on DAergic-modulated behavior in vivo, DAT knockout (KO) mice, which have constitutively elevated extracellular DA levels and consequently, spontaneous hyperactivity in a novel, open-field were used. After a 30 minute acclimation period, male and female DAT KO mice were administered vehicle or pharmacologically-relevant, brain penetrant doses of N8279 (FIG. 4A; 2.5, 5, or 10 mg/kg, IP), then were returned to the open-field and locomotion measured for 120 minutes.
Novelty-induced locomotor activity in DAT KO and inbred C57BL/6J mice. Open-field locomotor activity in mice was performed similar to that described in Barak et al., ACS Chem Biol. (2016)11(7):1880-90, the disclosure of which is incorporated herein in its entirety. In brief, Age- and sex-matched, littermate DAT KO and inbred C57BL/6J mice between 2-6 months of age were used to measure locomotor activity in an Omnitech Digiscan activity monitor (20×20 cm2; Accuscan Instruments, Columbus, OH). Locomotor activity was measured at 5 minutes intervals. To evaluate the effects of compounds on locomotor behavior, the mice were placed in an activity monitor for a 20-minute habituation period, and afterwards injected with drug or vehicle, returned to the monitor, and locomotor activity was recorded over a period of 90 minutes.

In experiment [8] the target is human GHSR1a^WT (Gαq) (Homo sapiens, UniProt Q92847). The experiment in a line: NanoBiT Gαq dissociation/activation. It is filed as cell-based. Details: HEK293/T (transient); HEK293S Gαq knockout (transient, NanoBiT Gαq).
Chain of human GHSR1a^WT (Gαq) (Q92847 whole entry): as the sequence (Q92847 whole entry) above
Experiment [9] concerns the target T5, hGHSR1a^WT (Homo sapiens, UniProt Q92847). The experiment in a line: Fixed-cell ELISA GHSR1a internalization. Also on record: expressed in transfected cells; HEK293/S Gαq/11 KO and parental WT (iCa2+). It is filed as cell-based. The settings on record: 45 minutes at 37° C. The procedure: Chemiluminescent Fixed-Cell ELISA. […] The next morning, media was removed and cells were serum starved with 90 μL of opti-MEM (containing no serum) for 2-3 hours at 37° C. Cells were then stimulated with 10× test compounds (diluted in serum-free opti-MEM) for 45 minutes at 37° C. in a humidified incubator. After 45 minutes, cells were fixed with 4% paraformaldehyde for 15 minutes (RT). Fixed cells were then washed three times with PBS (pH 7.4, Gibco) and blocked with fish gelatin in TBS (Rockland, Gilbertsville, PA) for 45 minutes. Cells were then incubated with a rabbit, horseradish peroxidase (HRP)-conjugated anti-HA antibody (1:2, 500; Novus Biologicals, Littleton, CO) for 1 hour (RT). […] The average luminescence was used and the data for each ligand were normalized its corresponding vehicle treatment conditions.
On the technique in general: ELISA stands for enzyme-linked immunosorbent assay.

Experiment [10] deals with T5, hGHSR1a^WT. Description: SRF-RE transcriptional activity. Format: cell-based. Also on record: expressed in transfected cells; HEK293/S Gαq/11 KO and parental WT (iCa2+). On the procedure:
The next morning, media was removed and cells were serum starved with 90 μL of opti-MEM (containing no serum) for 2 hours at 37° C. Cells were then stimulated with 10× test compounds (diluted in serum-free opti-MEM) for 5 hours at 37° C. in a humidified incubator. Cells were then lysed in 20 μL of 1× passive lysis buffer (Promega) for 10 minutes on a shaker (RT). To measure luminescence, 40 μL of luciferin (in HBSS supplemented with 20 mM HEPES) was injected into in each well and immediately read by a Mithras 940 plate reader for 10 seconds.

“Also recorded” adds a separate entry of the source.

T5 sequence (Q92847 whole entry): as above
T1 sequence (Q92847 whole entry): as above
T1 sequence (P32121 whole entry partner): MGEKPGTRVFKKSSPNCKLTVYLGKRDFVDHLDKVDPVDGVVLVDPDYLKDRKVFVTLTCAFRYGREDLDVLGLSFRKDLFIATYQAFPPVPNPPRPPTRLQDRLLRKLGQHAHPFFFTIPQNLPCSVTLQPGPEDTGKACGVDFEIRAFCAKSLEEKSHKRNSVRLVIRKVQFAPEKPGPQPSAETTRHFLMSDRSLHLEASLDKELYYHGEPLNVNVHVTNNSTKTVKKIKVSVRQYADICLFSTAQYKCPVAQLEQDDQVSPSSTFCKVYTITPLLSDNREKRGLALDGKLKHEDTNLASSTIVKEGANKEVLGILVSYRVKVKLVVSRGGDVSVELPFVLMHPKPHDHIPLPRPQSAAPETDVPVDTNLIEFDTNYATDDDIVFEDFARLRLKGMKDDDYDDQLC
T3 sequence (Q92847 whole entry D99A): as the sequence (Q92847 whole entry) above, with D99A counted along it

For the molecule `COc1ccc(C(=O)c2c(C(=O)NCCCN(C)C)oc3ccc(Cl)cc3c2=O)cc1OC` [Example N8279, 6-Chloro-3-(3,4-dimethoxybenzoyl)-N-(3-(dimethylamino)propyl)-4-oxo-4H-chromene-2-carboxamide], in experiment [1], the “BRET β-arr2 recruitment, fold less potent than ghrelin” value is on record as approximately 100 fold. For the same molecule, in [2], the “internalization efficacy attenuation relative to ghrelin (bBRET MyrPalm)” value is approximately 20% and the “internalization potency reduction relative to ghrelin (bBRET MyrPalm)” value is reported as 32 fold. Also, in experiment [3], the “endosomal transit, fold less potent than ghrelin (bBRET 2xFYVE)” value is listed as 32 fold and the “endosomal transit, less efficacious than ghrelin (bBRET 2xFYVE)” value is listed as approximately 35%. Besides, in [4], the “signaling at GHSR1a^D99A in words” value is “abolished”. For the same molecule, the “iCa2+ potency reduction at GHSR1a^E197A” value in [5] was approximately 3 fold. Moreover, the “Gαq dissociation potency reduction at GHSR1a^E197A” value in experiment [6] is on record as approximately 10 fold. The “hyperlocomotion in DAT KO mice in words” value in experiment [7] was “reduced locomotion; also recorded: reduced overall hyperlocomotion”. Also, the “Gαq activation Emax (NanoBiT)” value in experiment [8] was 118.3±9.8. For the same molecule, in experiment [9], the “internalization efficacy reduction relative to ghrelin (ELISA)” value is reported as approximately 30% and the “internalization potency reduction relative to ghrelin (ELISA)” value is 24 fold. In experiment [10], the “SRF-RE potency reduction relative to L585” value is on record as approximately 10 fold, the “SRF-RE potency reduction relative to ghrelin” value is listed as approximately 15 fold and the “SRF-RE transcription efficacy in words” value was “full agonist”.

Source of the values: US20240391928A1, “COMPOSITIONS FOR THE TREATMENT OF FOOD AND CHEMICAL ADDICTION AND METHODS OF MAKING AND USING SAME” (Duke University, priority 2021, published 2024).
